Consider 34 compounds from EP4624470A1, “YOHIMBINE DERIVATIVE, AND PREPARATION METHOD THEREFOR AND PHARMACEUTICAL COMPOSITION AND USE THEREOF” (Shanghai Institute of Materia Medica, Chinese Academy of …, priority 2022, dated 2024).

Structures are written as SMILES. Some results are limits rather than exact numbers.

A word on the IC50: it is the concentration needed to halve the response being measured.

For one series, the target named is T1, α2A-AR (Homo sapiens, UniProt P08913).
T1 construct: expressed in transfected cells; stably expressing α2A-AR/Gα16
T1 sequence (P08913 1-465): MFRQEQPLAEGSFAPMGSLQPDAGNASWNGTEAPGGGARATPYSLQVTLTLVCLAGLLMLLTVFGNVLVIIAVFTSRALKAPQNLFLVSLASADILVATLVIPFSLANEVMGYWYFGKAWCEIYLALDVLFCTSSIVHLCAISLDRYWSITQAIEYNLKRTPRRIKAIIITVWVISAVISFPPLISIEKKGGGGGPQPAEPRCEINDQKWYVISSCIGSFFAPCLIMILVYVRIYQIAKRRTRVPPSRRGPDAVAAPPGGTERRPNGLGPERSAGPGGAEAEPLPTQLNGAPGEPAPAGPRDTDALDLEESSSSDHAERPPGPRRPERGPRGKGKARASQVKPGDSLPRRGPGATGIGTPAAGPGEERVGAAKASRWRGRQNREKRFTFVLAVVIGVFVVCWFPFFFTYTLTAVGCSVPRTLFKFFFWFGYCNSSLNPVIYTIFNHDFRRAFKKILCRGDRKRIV
The series is described as follows: α2A-AR antagonist assay (calcium flux, Fluo-4, FlexStation II). To be noted: antagonistic activity against agonist UK14304 in cells stably expressing α2A-AR/Ga16. It is filed as cell-based. The source says: By establishing a cell line co-transfected with the target receptor and Ga16, the receptor can be activated to cause the activation of Gα16 protein, which in turn activates phospholipase C (PLC) to produce IP3 and DAG. IP3 can bind to the IP3 receptors on the endoplasmic reticulum and mitochondria in the cell, thereby causing the release of intracellular calcium. Therefore, measuring the changes in intracellular calcium can be used as a method to detect the activation state of the target receptor. Fluo-4/AM is a calcium fluorescent probe indicator used to measure calcium ions. As a non-polar lipid-soluble compound, after entering the cell, the AM group dissociates under the action of cell lipases and releases Fluo-4; since Fluo-4 is a polar molecule that is not easy to pass through the lipid bilayer membrane, it can keep in the cell for a long time. Finally, the level of Ga protein activation can be reflected by measuring the excited fluorescence intensity.
Before the test, the test compound was dissolved in DMSO to prepare a stock solution, which was diluted with culture medium to the required concentration when used.
For orientation: Calcium flux is commonly read through the fluorescence of an indicator in the cells.
Consider `O[C@H]1CC[C@H]2CN3CCc4c([nH]c5ccccc45)[C@@H]3C[C@@H]2[C@H]1c1nc(Cc2ccccc2)no1` [Compound C1], for which the IC50 is under 0.1 µM.
Still for that read-out and setting: the figure for `CC(c1ccccc1)c1noc([C@@H]2[C@H]3C[C@H]4c5[nH]c6ccccc6c5CCN4C[C@@H]3CC[C@@H]2O)n1` (some centres unmarked) [Compound C2] is 0.3 to 0.5 µM; for `O[C@H]1CC[C@H]2CN3CCc4c([nH]c5ccccc45)[C@@H]3C[C@@H]2[C@H]1c1nc(CCc2ccccc2)no1` [Compound C3] it is 0.1 to 0.3 µM; for `COc1ccccc1Cc1noc([C@@H]2[C@H]3C[C@H]4c5[nH]c6ccccc6c5CCN4C[C@@H]3CC[C@@H]2O)n1` [Compound C4] it is 0.5 to 2 µM.
On the same count and under the same terms, for `COc1cccc(Cc2noc([C@@H]3[C@H]4C[C@H]5c6[nH]c7ccccc7c6CCN5C[C@@H]4CC[C@@H]3O)n2)c1` [Compound C5] the value was 0.1 to 0.3 µM; for `COc1ccc(Cc2noc([C@@H]3[C@H]4C[C@H]5c6[nH]c7ccccc7c6CCN5C[C@@H]4CC[C@@H]3O)n2)cc1` [Compound C6], under 0.1 µM.
Same read-out and setting: the figure for `O[C@H]1CC[C@H]2CN3CCc4c([nH]c5ccccc45)[C@@H]3C[C@@H]2[C@H]1c1nc(Cc2ccccc2F)no1` [Compound C7] is 0.5 to 2 µM; for `O[C@H]1CC[C@H]2CN3CCc4c([nH]c5ccccc45)[C@@H]3C[C@@H]2[C@H]1c1nc(Cc2cccc(F)c2)no1` [Compound C8] it is 0.3 to 0.5 µM.
Regarding `O[C@H]1CC[C@H]2CN3CCc4c([nH]c5ccccc45)[C@@H]3C[C@@H]2[C@H]1c1nc(Cc2ccc(F)cc2)no1` [Compound C9], the IC50 lay within 0.5 to 2 µM.
The same measure, in the same setting: the figure for `O[C@H]1CC[C@H]2CN3CCc4c([nH]c5ccccc45)[C@@H]3C[C@@H]2[C@H]1c1nc(Cc2ccccc2Cl)no1` [Compound C10] is 0.5 to 2 µM.
Same read-out and setting: for `O[C@H]1CC[C@H]2CN3CCc4c([nH]c5ccccc45)[C@@H]3C[C@@H]2[C@H]1c1nc(Cc2cccc(Cl)c2)no1` [Compound C11] the value was 0.5 to 2 µM; for `O[C@H]1CC[C@H]2CN3CCc4c([nH]c5ccccc45)[C@@H]3C[C@@H]2[C@H]1c1nc(Cc2c(Cl)cccc2Cl)no1` [Compound C12], 0.1 to 0.3 µM.
As to `O[C@H]1CC[C@H]2CN3CCc4c([nH]c5ccccc45)[C@@H]3C[C@@H]2[C@H]1c1nc(Cc2ccc(Cl)c(Cl)c2)no1` [Compound C13], the 50% inhibitory concentration (IC50) was 0.5 to 2 µM.
On the same count and under the same terms, the figure for `O[C@H]1CC[C@H]2CN3CCc4c([nH]c5ccccc45)[C@@H]3C[C@@H]2[C@H]1c1nc(Cc2ccccc2Br)no1` [Compound C14] is under 0.1 µM; for `O[C@H]1CC[C@H]2CN3CCc4c([nH]c5ccccc45)[C@@H]3C[C@@H]2[C@H]1c1nc(Cc2cccc(Br)c2)no1` [Compound C15] it is under 0.1 µM; for `O[C@H]1CC[C@H]2CN3CCc4c([nH]c5ccccc45)[C@@H]3C[C@@H]2[C@H]1c1nc(Cc2ccc(Br)cc2)no1` [Compound C16] it is 0.5 to 2 µM.
The same measure, in the same setting: the figure for `N#Cc1ccccc1Cc1noc([C@@H]2[C@H]3C[C@H]4c5[nH]c6ccccc6c5CCN4C[C@@H]3CC[C@@H]2O)n1` [Compound C17] is 0.1 to 0.3 µM.
The same measure, in the same setting: for `N#Cc1cccc(Cc2noc([C@@H]3[C@H]4C[C@H]5c6[nH]c7ccccc7c6CCN5C[C@@H]4CC[C@@H]3O)n2)c1` [Compound C18] the value was under 0.1 µM.
Consider `O[C@H]1CC[C@H]2CN3CCc4c([nH]c5ccccc45)[C@@H]3C[C@@H]2[C@H]1c1nc(CN2CCOCC2)no1` [Compound C20], for which the IC50 is 0.1 to 0.3 µM.
On the same count and under the same terms, for `O[C@H]1CC[C@H]2CN3CCc4c([nH]c5ccccc45)[C@@H]3C[C@@H]2[C@H]1c1nc(CC2CC2)no1` [Compound C21] the value was 0.5 to 2 µM; for `COCc1noc([C@@H]2[C@H]3C[C@H]4c5[nH]c6ccccc6c5CCN4C[C@@H]3CC[C@@H]2O)n1` [Compound C22], 0.1 to 0.3 µM; for `O[C@H]1CC[C@H]2CN3CCc4c([nH]c5ccccc45)[C@@H]3C[C@@H]2[C@H]1c1nc(-c2ccccc2)no1` [Compound C23], 0.3 to 0.5 µM.
Turning to `O[C@H]1CC[C@H]2CN3CCc4c([nH]c5ccccc45)[C@@H]3C[C@@H]2[C@H]1c1nc(-c2ccncc2)no1` [Compound C24], the concentration for half-maximal inhibition (IC50) was 0.5 to 2 µM.
The same measure, in the same setting: the figure for `O[C@H]1CC[C@H]2CN3CCc4c([nH]c5ccccc45)[C@@H]3C[C@@H]2[C@H]1c1nc(C2CCCCC2)no1` [Compound C25] is 0.3 to 0.5 µM; for `Cc1noc([C@@H]2[C@H]3C[C@H]4c5[nH]c6ccccc6c5CCN4C[C@@H]3CC[C@@H]2O)n1` [Compound C26] it is 0.1 to 0.3 µM.
Take `NC(=O)c1ccc(Cc2noc([C@@H]3[C@H]4C[C@H]5c6[nH]c7ccccc7c6CCN5C[C@@H]4CC[C@@H]3O)n2)cc1` [Compound C27]: the IC50 is under 0.1 µM.
On the same count and under the same terms, for `CN(C)S(=O)(=O)c1ccc(Cc2noc([C@@H]3[C@H]4C[C@H]5c6[nH]c7ccccc7c6CCN5C[C@@H]4CC[C@@H]3O)n2)cc1` [Compound C28] the value was under 0.1 µM; for `COC(=O)c1ccc(Cc2noc([C@@H]3[C@H]4C[C@H]5c6[nH]c7ccccc7c6CCN5C[C@@H]4CC[C@@H]3O)n2)cc1` [Compound C29], 0.1 to 0.3 µM; for `O=C(O)c1ccc(Cc2noc([C@@H]3[C@H]4C[C@H]5c6[nH]c7ccccc7c6CCN5C[C@@H]4CC[C@@H]3O)n2)cc1` [Compound C30], 0.3 to 0.5 µM.
Same read-out and setting: the figure for `O[C@H]1CC[C@H]2CN3CCc4c([nH]c5ccccc45)[C@@H]3C[C@@H]2[C@H]1c1nc(Cc2nc3ccccc3o2)no1` [Compound C31] is 0.3 to 0.5 µM; for `O[C@H]1CC[C@H]2CN3CCc4c([nH]c5ccccc45)[C@@H]3C[C@@H]2[C@H]1c1nc(Cc2cccc(OC(F)(F)F)c2)no1` [Compound C32] it is under 0.1 µM.
Same read-out and setting: the figure for `O[C@H]1CC[C@H]2CN3CCc4c([nH]c5ccccc45)[C@@H]3C[C@@H]2[C@H]1c1nc(Cc2cccc(C(F)(F)F)c2)no1` [Compound C33] is 0.1 to 0.3 µM; for `CN(C)c1cccc(Cc2noc([C@@H]3[C@H]4C[C@H]5c6[nH]c7ccccc7c6CCN5C[C@@H]4CC[C@@H]3O)n2)c1` [Compound C34] it is 0.1 to 0.3 µM; for `CN(C)C(=O)c1ccc(Cc2noc([C@@H]3[C@H]4C[C@H]5c6[nH]c7ccccc7c6CCN5C[C@@H]4CC[C@@H]3O)n2)cc1` [Compound C35] it is 0.1 to 0.3 µM.

Tested on in a further series: not listed separately
The series is described as follows: Tissue distribution test in mice. It is filed as in vivo. The conditions noted are these: gavage 10 mg/kg. On the procedure: Mice were fasted for more than 12 h and had free access to water. Table 3 Experimental Scheme for tissue distribution of Compound C27 in mice
Mice were fasted for more than 12 h and had free access to water.
• (1) Tissue distribution test in mice: The animals in each group were anesthetized and killed 2 h after administration. The brain, pancreas, heart, liver, and kidney tissues were collected by dissection, washed with physiological saline, and stored in a -20 °C refrigerator for testing. At the same time, 0.3 mL of whole blood was collected and placed in an EDTA-K2 anticoagulant tube. The blood was separated by centrifugation at 11,000 rpm for 5 min and stored in a -20 °C refrigerator for testing.
The concentration of unchanged drug in plasma and tissues was determined.
(2) Tissue distribution test of compound C27 in mice: At corresponding time points (0.25, 2 and 8 h) after gavage administration, mice were bled to death through the abdominal aorta. Brain, heart, liver, lung, pancreas and kidney tissues were immediately collected by dissection, and part of the plasma was collected. The operation was carried out in an ice water bath.
Centrifugation conditions: 11000 rpm for 5 min to separate plasma (about 200 µL).
For the compound `NC(=O)c1ccc(Cc2noc([C@@H]3[C@H]4C[C@H]5c6[nH]c7ccccc7c6CCN5C[C@@H]4CC[C@@H]3O)n2)cc1` [Compound C27], the pancreatic distribution entry is “pancreatic distribution characteristics comparable to those of compound C19”.

The same series, now with this note: gavage 10 mg/kg, compared with yohimbine.
Regarding `NC(=O)c1ccc(Cc2noc([C@@H]3[C@H]4C[C@H]5c6[nH]c7ccccc7c6CCN5C[C@@H]4CC[C@@H]3O)n2)cc1` [Compound C27], the plasma exposure result was “equivalent to that of yohimbine”.

The series is the same for the next values; noted with them: gavage 10 mg/kg, relative ratio of tissue distribution concentration to blood concentration.
Turning to `O[C@H]1CC[C@H]2CN3CCc4c([nH]c5ccccc45)[C@@H]3C[C@@H]2[C@H]1c1nc(Cc2ccccc2)no1` [Compound C1], the “brain tissue distribution compared with yohimbine” value was “lower brain tissue distribution than yohimbine”.
Regarding `COc1ccc(Cc2noc([C@@H]3[C@H]4C[C@H]5c6[nH]c7ccccc7c6CCN5C[C@@H]4CC[C@@H]3O)n2)cc1` [Compound C6], the “brain tissue distribution compared with yohimbine” value is listed as “lower brain tissue distribution than yohimbine”.
The same measure, in the same setting: for `O[C@H]1CC[C@H]2CN3CCc4c([nH]c5ccccc45)[C@@H]3C[C@@H]2[C@H]1c1nc(Cc2ccc(Cl)c(Cl)c2)no1` [Compound C13] the value was “lower brain tissue distribution than yohimbine”.
For `NC(=O)c1ccc(Cc2noc([C@@H]3[C@H]4C[C@H]5c6[nH]c7ccccc7c6CCN5C[C@@H]4CC[C@@H]3O)n2)cc1` [Compound C27], the “brain tissue distribution compared with yohimbine” value was “lower brain tissue distribution than yohimbine”; the “brain tissue distribution, times lower than that of yohimbine” value was “about two hundred and seventy times lower”.
